Results taken from US7531482B2, “Thieno-pyrimidine compounds having fungicidal activity” (Dow AgroSciences LLC, priority 2005, dated 2009).

Columns and labels:
Format in all cases: in vivo
[1] = system: Erysiphe cichoracaerum; assay: Cucumber Powdery Mildew (ERYSCI) whole-plant disease control test; conditions: Erysiphe, foliar; 200 ppm applied to foliage of cucumber; inoculated one day after treatment; read-out: ERYSCI disease control
[2] = system: Leptosphaeria nodorum; assay: Glume Blotch of Wheat (LEPTNO) whole-plant disease control test; conditions: Parastagonospora nodorum, foliar; 200 ppm applied to foliage of wheat; inoculated one day after treatment; read-out: LEPTNO disease control
[3] = system: Magnaporthe grisea=Pyricularia oryzae; assay: whole plant or invertebrate; conditions: Pyricularia oryzae, foliar, read-out: PYRIOR disease control, 200 ppm applied to foliage of rice; inoculated one day after treatment
[4] = system: Mycosphaerella graminicola=Septoria tritici; assay: Speckled Leaf Blotch of Wheat (SEPTTR) whole-plant disease control test; conditions: Mycosphaerella, foliar, 75 ppm applied to foliage of wheat; read-out: SEPTTR disease control
[5] = system: Colletotricum lagenarium; assay: Cucumber Anthracnose (COLLLA) whole-plant disease control test; conditions: Cucumis sativus, foliar; 200 ppm applied to foliage of cucumber; inoculated one day after treatment; read-out: COLLLA disease control
[6] = system: Puccinia recondita tritici; assay: Leaf Rust of Wheat (PUCCRT) whole-plant disease control test; conditions: Puccinia recondita, foliar, 200 ppm applied to foliage of wheat; inoculated one day after treatment; read-out: PUCCRT disease control
[7] = system: Phytophthora infestans; assay: whole plant or invertebrate; conditions: Phytophthora infestans, in Solanum lycopersicum, foliar, read-out: PHYTIN disease control, 200 ppm applied to foliage of tomato; inoculated one day after treatment

| SMILES | pest or weed control at 200 ppm [1] | pest or weed control at 200 ppm [2] | pest or weed control at 200 ppm [3] | pest or weed control at 75 ppm [4] | pest or weed control at 200 ppm [5] | pest or weed control at 200 ppm [6] | pest or weed control at 200 ppm [7] |
| --- | --- | --- | --- | --- | --- | --- | --- |
| FC(F)(F)c1ccnc(Oc2ccc(CCNc3ncnc4scc(Cl)c34)cc2)n1 [Compound 27] | 80 to 100% | 0 to 49% | 80 to 100% | 50 to 79% | 50 to 79% | 80 to 100% | 50 to 79% |
| N#Cc1cccnc1Oc1ccc(CCNc2ncnc3scc(Cl)c23)cc1 [Compound 28] | 0 to 49% | 50 to 79% | 50 to 79% | 50 to 79% | 50 to 79% | 80 to 100% | 0 to 49% |
| N#Cc1ncc(F)cc1Oc1ccc(CCNc2ncnc3scc(Cl)c23)cc1 [Compound 29] | 0 to 49% | 0 to 49% | 50 to 79% | 50 to 79% | 50 to 79% | 80 to 100% | 0 to 49% |
| N#Cc1ncc(Oc2ccc(CCNc3ncnc4scc(Cl)c34)cc2)cc1F [Compound 30] | 50 to 79% | 0 to 49% | 80 to 100% | 50 to 79% | 80 to 100% | 80 to 100% | 50 to 79% |
| N#Cc1cccc(Oc2ccc(CCNc3ncnc4scc(Cl)c34)cc2)n1 [Compound 32] | 80 to 100% | 0 to 49% | 80 to 100% | 50 to 79% | 50 to 79% | 80 to 100% | 50 to 79% |
| CN(C)NC(=O)c1ccc(Oc2ccc(CCNc3ncnc4scc(Cl)c34)cc2)nc1 [Compound 33, 6-{4-[2-(5-Chlorothieno[2,3-d]pyrimidin-4-ylamino)ethyl]phenoxy}nicotinic acid N′,N′-dimethylhydrazide] | 0 to 49% | 0 to 49% | 80 to 100% | 0 to 49% | 50 to 79% | 80 to 100% | 50 to 79% |
| CO/N=C\c1ccc(Oc2ccc(CCNc3ncnc4scc(Cl)c34)cc2)nc1 [Compound 34, 6-{4-[2-(5-Chlorothieno[2,3-d]pyrimidin-4-ylamino)ethyl]phenoxy}pyridine-3-carbaldehyde O-methyloxime] | 80 to 100% | 0 to 49% | 80 to 100% | 50 to 79% | 80 to 100% | 80 to 100% | 0 to 49% |
| Fc1cccc(Oc2ccc(CCNc3ncnc4scc(Cl)c34)cc2)n1 [Compound 36] | 80 to 100% | 0 to 49% | 80 to 100% | 50 to 79% | 50 to 79% | 80 to 100% | 0 to 49% |
| Clc1cccc(Oc2ccc(CCNc3ncnc4scc(Cl)c34)cc2)n1 [Compound 37] | 80 to 100% | 0 to 49% | 80 to 100% | 50 to 79% | 80 to 100% | 80 to 100% | 0 to 49% |
| Clc1csc2ncnc(NCCc3ccc(Oc4cnccn4)cc3)c12 [Compound 38] | 50 to 79% | 0 to 49% | 50 to 79% | 50 to 79% | 50 to 79% | 80 to 100% | 50 to 79% |
| CC(=O)c1ccc(Oc2ccc(CCNc3ncnc4scc(Cl)c34)cc2)nc1 [Compound 39] | 50 to 79% | 0 to 49% | 80 to 100% | 0 to 49% | 0 to 49% | 80 to 100% | 80 to 100% |
| N#Cc1ncc(Oc2ccc(CCNc3ncnc4scc(Cl)c34)cc2)cn1 [Compound 40] | 50 to 79% | 0 to 49% | 80 to 100% | 0 to 49% | 0 to 49% | 80 to 100% | 80 to 100% |
| N#Cc1ccnc(Oc2ccc(CCNc3ncnc4scc(Cl)c34)cc2)n1 [Compound 41] | 50 to 79% | 0 to 49% | 80 to 100% | 0 to 49% | 0 to 49% | 80 to 100% | 80 to 100% |
